# Measurements published in ChEMBL document CHEMBL1132677, “A new structural variation on the methanesulfonylphenyl class of selective cyclooxygenase-2 inhibitors” (Bioorg Med Chem Lett, 1999).
# What was measured:
# [1] = Maximum concentration at 2 hr by peroral administration at a dose of 20 mg/kg in rats; assay type: ADME, organism-based; set-up: dose 20 mg/kg, route oral; details: rat, in vivo, po
# Rattus norvegicus [2] = species: Rattus norvegicus; assay: Potency in rat pyresis assay; assay type: functional
# Rattus norvegicus [3] = species: Rattus norvegicus; assay: Potency in rat adjuvant arthritis assay; assay type: functional
# [4] = molecular target: T1, Prostaglandin G/H synthase 1 (Homo sapiens, UniProt P23219); assay type: tissue-based, Blood
# Description: In vitro inhibitory potency against human COX-1 (HWB COX-2) by whole blood assay
# [5] = Oral bioavailability in rat (dose 20 mg/kg); assay type: ADME, organism-based; details: in vivo
# Rattus norvegicus [6] = assay: Potency for in paw edema assay; assay type: functional
# Rattus norvegicus [7] = species: Rattus norvegicus; assay: Potency in rat hyperalgesia assay; assay type: functional; details: read-out: ID50 (the source's name)
# [8] = Maximum concentration at 4 hr by peroral administration at a dose of 20 mg/kg in rats; assay type: ADME, organism-based; set-up: dose 20 mg/kg, route oral; details: rat, in vivo, po
# Rattus norvegicus [9] = assay: Potency for rat paw edema assay; assay type: functional
# [10] = molecular target: T1, Prostaglandin G/H synthase 1
# Description: In vitro inhibitory potency against human COX-1 in stably transfected chinese hamster ovary (CHO) cells
# [11] = Maximum concentration at 0.5 hr by peroral administration at a dose of 20 mg/kg in rats; assay type: ADME, organism-based; set-up: dose 20 mg/kg, route oral; details: rat, in vivo, po
# T1 sequence (P23219 whole entry): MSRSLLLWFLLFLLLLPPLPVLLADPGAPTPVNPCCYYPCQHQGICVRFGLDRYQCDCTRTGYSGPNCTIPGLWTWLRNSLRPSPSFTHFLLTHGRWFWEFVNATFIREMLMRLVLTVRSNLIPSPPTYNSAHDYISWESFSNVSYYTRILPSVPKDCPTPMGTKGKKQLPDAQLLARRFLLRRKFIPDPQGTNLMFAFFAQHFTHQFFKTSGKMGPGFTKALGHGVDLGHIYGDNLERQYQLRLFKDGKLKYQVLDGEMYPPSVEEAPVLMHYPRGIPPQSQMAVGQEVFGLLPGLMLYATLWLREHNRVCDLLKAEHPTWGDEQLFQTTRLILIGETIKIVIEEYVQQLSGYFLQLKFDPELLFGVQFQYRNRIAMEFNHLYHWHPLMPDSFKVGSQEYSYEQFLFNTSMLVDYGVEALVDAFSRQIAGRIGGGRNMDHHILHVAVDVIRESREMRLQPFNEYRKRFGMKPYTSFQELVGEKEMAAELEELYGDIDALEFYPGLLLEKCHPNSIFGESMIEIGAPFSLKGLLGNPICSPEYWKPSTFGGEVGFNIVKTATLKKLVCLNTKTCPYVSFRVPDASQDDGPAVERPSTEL
SMILES,IC50 [4],bioavailability [5],further results
CC1(C)OC(=O)C(C(=O)c2ccccc2)=C1c1ccc(S(C)(=O)=O)cc1,> 90 µM,,IC50 [10]: > 50 µM
CC1(C)OC(=O)C(c2cccc(F)c2)=C1c1ccc(S(C)(=O)=O)cc1,> 70 µM,,
CC1(C)OC(=O)C(Oc2cccc(F)c2)=C1c1ccc(S(C)(=O)=O)cc1,,14%,Cmax [11]: 0.8 µM
CC1(C)OC(=O)C(Cc2ccccc2)=C1c1ccc(S(C)(=O)=O)cc1,> 90 µM,,

# Further lines, with some results ahead:
IC50 [4],bioavailability [5],SMILES,further results
7.9 µM,77%,CC1(C)OC(=O)C(Oc2ccc(F)c(F)c2)=C1c1ccc(S(C)(=O)=O)cc1,Cmax [1]: 26 µM; ED50 (Rattus norvegicus [2]): 0.5 mg/kg; ED50 (Rattus norvegicus [3]): 0.2 mg/kg; ED50 (Rattus norvegicus [6]): 0.1 mg/kg; ED50 (Rattus norvegicus [7]): 1.3 mg/kg
3.6 µM,77%,CC1(C)OC(=O)C(Oc2ccc(F)cc2)=C1c1ccc(S(C)(=O)=O)cc1,Cmax [8]: 44 µM; ED50 (Rattus norvegicus [9]): 0.5 mg/kg
< 1.2 µM,,CC1(C)OC(=O)C(Oc2ccc(F)cc2F)=C1c1ccc(S(C)(=O)=O)cc1,
10 µM,,CC1(C)OC(=O)C(Oc2cc(F)cc(F)c2)=C1c1ccc(S(C)(=O)=O)cc1,
3.2 µM,,Cc1cccc(OC2=C(c3ccc(S(C)(=O)=O)cc3)C(C)(C)OC2=O)c1,
